Read-outs that look alike come from different tables or passages of the source.
Columns and labels:
[1] = tested on: 42MGBA cells; test: Cell viability assay (CellTiter-Glo), 42MGBA; format: cell-based; conditions: Homo sapiens; Cell Line: 42M6BA; read-out: LC50 (μM ± SD)
Method: (§1) In vitro activity of QBS10072S was assessed using a modified clonogenic cell viability assay in 96-well clear-bottom plates. For the LLC-PK1 inducible LAT1-expressing cell line, 1000 cells/well were plated and cells were treated with either butyrate alone (non-induced) or with both butyrate and doxycycline (induced) as described above. For GBM cell lines, 2000 cells/well were plated. On day 2 (GBM) or day 3 (LLC-PK1) after original plating, cells were washed twice with PBS and incubated with 50 μL of various concentrations of QBS10072S in PBS in at least quadruplicate. After 30 minutes at 37°C, 200 μL of growth medium was added to each well. Clonal populations were allowed to grow until the control wells (mock treatment) were near confluence (7 to 10 days). At this point, 170 μL media were removed and 60 μL CellTiter-Glo® (Promega, Madison, WI) were added to each well. Plates were placed on an orbital shaker for three minutes to lyse the cells and then incubated for an additional 10 minutes at RT to stabilize the luminescent signal. Luminescence was recorded using an EnSpire® Multimode Plate Reader (Perkin Elmer). Background (luminescence from wells incubated with 100 μM melphalan or lomustine) was subtracted and data were normalized to the control. EC50s were determined by non-linear regression using GraphPad Prism.

[2] = tested on: GBM cell lines; test: Cell viability assay (CellTiter-Glo), multiple GBM cell lines; format: cell-based; conditions: Homo sapiens; range over cell lines; read-out: EC50s, viability loss in multiple GBM cell lines
Method: as §1

[3] = tested on: breast cancer metastatic tumors; design: method as in PMID 34635566; conditions: leptomeningeal metastatic disease model, BBB never disrupted; cited from earlier work
[4] = tested on: U251 cells; test: Cell viability assay (CellTiter-Glo), U251; format: cell-based; conditions: Homo sapiens, U-251; Cell Line: U251; read-out: LC50 (μM ± SD)
Method: as §1

[5] = tested on: phosphorylation of H2AX in U251 cells; test: Phosphorylation of γ-H2AX assay (immunoblot), U251; format: cell-based, human; conditions: U251, 16 hours
Method: (§2) U251 or normal human astrocyte cells were plated in six-well plates and incubated with various concentrations of QBS10072S for 16 hours. Proteins were extracted from cells using cell lysis buffer (Cell Signaling Technologies, Danvers, MA) supplemented with proteinase and a phosSTOP phosphatase inhibitor cocktail (Sigma-Aldrich, St. Louis, MO). Proteins were separated by SDS-PAGE and transferred onto polyvinylidene difluoride membranes, which were then probed with primary antibodies followed by horseradish peroxidase-conjugated secondary antibody, and visualized by ECL (Thermo-Fischer, S. San Francisco, CA). Antibodies specific for γH2AX (#2577), LAT1 (#5347), and beta-actin (#4970) were obtained from Cell Signaling Technologies.

[6] = tested on: phosphorylation of H2AX in LN229 cells; test: Phosphorylation of γ-H2AX assay (immunoblot), LN229; format: cell-based, human; conditions: LN229, 16 hours
[7] = tested on: U87 cells; test: WST1 cell viability assay, U87; format: cell-based; conditions: Homo sapiens, U-87 MG, read-out: LC50 (μM ± SD)
Method: In vitro activities of QBS10072S and temozolomide (TMZ) in U87 and U87-MGMT cells were assessed using the WST1 cell viability assay in 96-well plates in which 500/well of cells were plated in sextuplets for each condition. To avoid cell loss, the following washing and medium removing procedures were all done using a P200 pipet without vacuum aspiration. For QBS10072S treatment, cells were washed with PBS the next day and incubated with 50 μL of various concentrations of QBS10072S in PBS for 1 hour at 37°C. After incubation, 150 μL of growth medium was added to each well. The medium was subsequently changed every two days until day 7. For TMZ treatment, cells were treated with 100 μL of various concentrations of TMZ in a growth medium for 2 days. After incubation, cells were put back in a normal growth medium and continued culturing for five days. In the end, 10 μL of WST1 reagent was added to each well and incubated at 37°C for 4h before subjecting to plate reading at 450 nm and 690nm using an EnSpire multimode plate reader (PerkinElmer). Background (OD690nm) was subtracted and data were normalized to the control. LC50s were determined by non-linear regression using GraphPad Prism (GraphPad Software Inc., San Diego, California)

[8] = tested on: phosphorylation of H2AX in normal human astrocytes; test: Phosphorylation of γ-H2AX assay (immunoblot), normal human astrocytes; format: cell-based; conditions: NHAs, basal LAT1 undetectable, 16 hours
Method: as §2

[9] = tested on: LN229 cells; test: Cell viability assay (CellTiter-Glo), LN229; format: cell-based; conditions: Homo sapiens, LN-229; Cell Line: LN229; read-out: LC50 (μM ± SD)
Method: as §1

[10] = Maximum tolerated dose in Sprague-Dawley rats; format: in vivo, rat; conditions: highest dose 10 mg/kg IV on day zero
Method: Figure 7 Maximum tolerated dose in rats Sprague-Dawley rats (4 per arm) were dosed IV on day zero with vehicle or 2.5, 5, or 10 mg/kg of QBS10072S. Animals were monitored for two weeks for body weight changes (A), survival (B), and complete blood counts, including white blood cells (C), neutrophils (D), lymphocytes (E), red blood cells (F), platelets (G), and reticulocytes (H). Cell count results are expressed as cell count per μl. The normal cell count range for each type of cell is between the “max” and “min” lines, and the average value is indicated with a dotted line. Based on allometric scaling, 2.5, 5, and 10 mg/kg in rats is equivalent to 5, 10, and 20 mg/kg.

[11] = Cytotoxicity in normal human astrocytes (CellTiter-Glo); format: cell-based; conditions: normal human astrocytes (NHA), read-out: LC50
Method: In vitro activity of QBS10072S was assessed using a modified clonogenic cell viability assay in 96-well clear-bottom plates. […] For GBM cell lines, 2000 cells/well were plated. On day 2 (GBM) or day 3 (LLC-PK1) after original plating, cells were washed twice with PBS and incubated with 50 μL of various concentrations of QBS10072S in PBS in at least quadruplicate. After 30 minutes at 37°C, 200 μL of growth medium was added to each well. Clonal populations were allowed to grow until the control wells (mock treatment) were near confluence (7 to 10 days). At this point, 170 μL media were removed and 60 μL CellTiter-Glo® (Promega, Madison, WI) were added to each well. Plates were placed on an orbital shaker for three minutes to lyse the cells and then incubated for an additional 10 minutes at RT to stabilize the luminescent signal. Luminescence was recorded using an EnSpire® Multimode Plate Reader (Perkin Elmer). Background (luminescence from wells incubated with 100 μM melphalan or lomustine) was subtracted and data were normalized to the control. EC50s were determined by non-linear regression using GraphPad Prism.
Cells were incubated with a titration of QBS10072S or melphalan and cell viability was measured by CellTiter-Glo. LC50 values for each compound were determined.

[12] = tested on: LLC-PK1 inducible LAT1-expressing cell line; test: Modified clonogenic cell viability assay (CellTiter-Glo), LLC-PK1 inducible LAT1-expressing cells; format: cell-based; conditions: for EC50: Sus scrofa, read-out: EC50, suppression of viability
Method: as §1

Question: With `Cc1ccc(N(CCCl)CCCl)cc1C[C@H](N)CC(=O)O` [QBS10072S, (+)-(3S)-amino-4-[5-[bis(2-chloroethyl)amino]-2-methyl-phenyl]butanoic acid] as the compound, how does the CC50 [1] read?
Answer: 40 ± 10 µM

Question: What about the EC50 [2] of the same compound?
Answer: 12 to 40 µM

Question: What about the “inhibition of tumor growth with intact BBB” value [3] of the same compound?
Answer: still effective for inhibiting tumor growth

Question: What about the CC50 [4] of the same compound?
Answer: 12 ± 2 µM

Question: What about the “phosphorylation of H2AX” value [5] of the same compound?
Answer: dose-dependent phosphorylation of H2AX

Question: And the “phosphorylation of H2AX” value [6]?
Answer: dose-dependent phosphorylation of H2AX

Question: What about the CC50 [7] of the same compound?
Answer: 14.7 ± 5.3 µM

Question: What about the “DDR pathway activation (phospho-H2AX)” value [8] of the same compound?
Answer: significantly lower DDR pathway activation

Question: And the CC50 [9]?
Answer: 16 ± 2 µM

Question: And the maximum tolerated dose [10]?
Answer: the highest dose was greater than the maximum tolerated dose

Question: What about the CC50 at 30 min [11] of the same compound?
Answer: > 10 µM

Question: What about the EC50 ([12]; LLC-PK1, induced, high LAT1 expressing cells) of the same compound?
Answer: 1 µM

Question: What about the EC50 ([12]; LLC-PK1, non-induced cells, low endogenous LAT1) of the same compound?
Answer: 5.5 µM

Question: What about the “potency induced vs. non-induced cells” value ([12]; high LAT1 vs. non-induced) of the same compound?
Answer: 5.5 times

From PMC8482806, “A Novel Blood-Brain Barrier-Permeable Chemotherapeutic Agent for the Treatment of Glioblastoma” (Cureus, 2021)
